Source: patent US20250368649A1, “TETRAHYDROPYRIDOPYRIMIDINE PAN-KRAS INHIBITORS” (Mirati Therapeutics, Inc., priority 2022, published 2025)

Experiments:
[1] = system: H727 cells; assay: Inhibition of KRas-mediated phosphorylation of ERK (Cisbio HTRF pERK), H727 cells; format: cell-based; details: Homo sapiens; for IC50: NCI-H727, 3 h, 3 hr compound incubation, Cisbio pERK HTRF; for inhibition at 0.1 µM: NCI-H727, single point at 100 nM, 3 hrs compound incubation
[2] = system: A549 cells; assay: Inhibition of KRas-mediated phosphorylation of ERK (Cisbio HTRF pERK), A549 cells; format: cell-based; details: Homo sapiens; for inhibition at 0.1 µM: single point at 100 nM, 3 hrs compound incubation; for IC50: A549, 3 h, 3 hr compound incubation, Cisbio pERK HTRF
[3] = biological target: KRas G13D (Homo sapiens, UniProt P01116, G13D); format: binding; details: single point, 10 nM compound, read-out: Binding to KRas (% inhibition at 10 nM) G13D
Sequence of KRas G13D (P01116 1-169 isoform P01116-2 G13D): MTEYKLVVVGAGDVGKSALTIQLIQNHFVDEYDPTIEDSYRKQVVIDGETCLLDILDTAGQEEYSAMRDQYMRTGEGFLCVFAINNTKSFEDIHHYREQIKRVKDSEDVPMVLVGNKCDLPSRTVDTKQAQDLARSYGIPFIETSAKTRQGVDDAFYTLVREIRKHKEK

[4] = system: ASPC1 cells; assay: Inhibition of KRas-mediated phosphorylation of ERK (Cisbio HTRF pERK), ASPC1 cells; format: cell-based; details: Homo sapiens, AsPC-1 cells; for IC50: ASPC1, 3 h, 3 hr compound incubation, Cisbio pERK HTRF; for inhibition at 0.1 µM: ASPC1, single point at 100 nM, 3 hrs compound incubation
[5] = system: HCT116 cells; assay: Inhibition of KRas-mediated phosphorylation of ERK (Cisbio HTRF pERK), HCT116 cells; format: cell-based; details: Homo sapiens; for inhibition at 0.1 µM: HCT-116, single point at 100 nM, 3 hrs compound incubation; for IC50: HCT-116, 3 h, 3 hr compound incubation, Cisbio pERK HTRF
[6] = biological target: KRas G12A (Homo sapiens, UniProt P01116, G12A); format: binding; details: single point, 10 nM compound, read-out: Binding to KRas (% inhibition at 10 nM) G12A
Sequence of KRas G12A (P01116 1-169 isoform P01116-2 G12A): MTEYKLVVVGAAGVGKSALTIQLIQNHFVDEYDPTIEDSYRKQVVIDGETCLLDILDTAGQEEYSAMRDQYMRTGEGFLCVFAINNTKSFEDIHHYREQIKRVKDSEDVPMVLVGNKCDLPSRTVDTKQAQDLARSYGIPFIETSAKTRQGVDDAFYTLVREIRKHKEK

[7] = system: H460 cells; assay: Inhibition of KRas-mediated phosphorylation of ERK (Cisbio HTRF pERK), H460 cells; format: cell-based; details: Homo sapiens; for inhibition at 0.1 µM: NCI-H460, single point at 100 nM, 3 hrs compound incubation; for IC50: NCI-H460, 3 h, 3 hr compound incubation, Cisbio pERK HTRF
[8] = biological target: KRas G12R (Homo sapiens, UniProt P01116, G12R); assay: biochemical; details: Binding to KRas (IC50 nM) G12R, TR-FRET displacement, KRas G12R
Sequence of KRas G12R (P01116 1-169 isoform P01116-2 G12R): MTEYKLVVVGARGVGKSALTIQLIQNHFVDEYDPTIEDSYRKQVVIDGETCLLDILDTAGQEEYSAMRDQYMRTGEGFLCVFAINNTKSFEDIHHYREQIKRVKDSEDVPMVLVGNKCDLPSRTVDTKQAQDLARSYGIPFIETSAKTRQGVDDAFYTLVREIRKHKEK

[9] = system: MKN1 cells; assay: Inhibition of KRas-mediated phosphorylation of ERK (Cisbio HTRF pERK), MKN1 cells; format: cell-based; details: Homo sapiens, MKN-1, 3 hour compound incubation, Cisbio pERK HTRF
Procedure, shortened: (§1)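 On the first day, plate 6,000 cells into each well in RPMI medium with 10% fetal bovine serum.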

[10] = biological target: KRas WT (Homo sapiens, UniProt P01116); assay: KRas binding assay (TR-FRET displacement), KRas WT; details: single point, 10 nM compound
Sequence of KRas WT (P01116 1-169 isoform P01116-2): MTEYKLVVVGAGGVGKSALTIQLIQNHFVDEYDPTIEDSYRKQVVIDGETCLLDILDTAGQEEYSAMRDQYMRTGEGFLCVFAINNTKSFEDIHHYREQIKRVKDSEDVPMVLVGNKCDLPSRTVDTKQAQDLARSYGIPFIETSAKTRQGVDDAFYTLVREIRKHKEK

[11] = biological target: KRas G12S (Homo sapiens, UniProt P01116, G12S); format: binding; details: single point, 10 nM compound, read-out: Binding to KRas (% inhibition at 10 nM) G12S
Sequence of KRas G12S (P01116 1-169 isoform P01116-2 G12S): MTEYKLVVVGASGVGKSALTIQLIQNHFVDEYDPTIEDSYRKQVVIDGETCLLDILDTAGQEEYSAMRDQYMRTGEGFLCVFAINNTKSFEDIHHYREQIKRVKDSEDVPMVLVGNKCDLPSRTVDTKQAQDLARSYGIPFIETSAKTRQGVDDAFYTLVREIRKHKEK

[12] = biological target: KRas Q61H (Homo sapiens, UniProt P01116, Q61H); assay: KRas binding assay (TR-FRET displacement), KRas Q61H; details: single point, 10 nM compound
Sequence of KRas Q61H (P01116 1-169 isoform P01116-2 Q61H): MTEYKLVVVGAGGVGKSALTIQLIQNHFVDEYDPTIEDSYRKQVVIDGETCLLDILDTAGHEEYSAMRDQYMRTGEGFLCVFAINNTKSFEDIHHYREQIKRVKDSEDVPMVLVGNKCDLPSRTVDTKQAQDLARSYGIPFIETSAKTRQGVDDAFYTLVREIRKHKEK

[13] = biological target: KRas G12V (Homo sapiens, UniProt P01116, G12V); assay: biochemical; details: Binding to KRas (IC50 nM) G12V, TR-FRET displacement, KRas G12V
Sequence of KRas G12V (P01116 1-169 isoform P01116-2 G12V): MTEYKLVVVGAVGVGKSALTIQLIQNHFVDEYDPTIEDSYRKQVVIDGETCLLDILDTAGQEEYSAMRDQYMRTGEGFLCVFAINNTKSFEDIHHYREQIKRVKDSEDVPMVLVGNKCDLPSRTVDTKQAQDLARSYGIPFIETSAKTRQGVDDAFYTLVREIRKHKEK

[14] = biological target: KRas G12C (Homo sapiens, UniProt P01116, G12C); format: binding; details: single point, 10 nM compound, read-out: Binding to KRas (% inhibition at 10 nM) G12C
Sequence of KRas G12C (P01116 1-169 isoform P01116-2 G12C): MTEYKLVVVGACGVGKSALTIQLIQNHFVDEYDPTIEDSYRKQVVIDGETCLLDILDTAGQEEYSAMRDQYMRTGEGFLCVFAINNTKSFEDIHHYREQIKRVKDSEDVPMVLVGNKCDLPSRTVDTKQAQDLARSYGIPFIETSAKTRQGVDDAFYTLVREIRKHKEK

[15] = biological target: KRas G12D (Homo sapiens, UniProt P01116, G12D); assay: biochemical; details: Binding to KRas (IC50 nM) G12D, TR-FRET displacement, KRas G12D
Sequence of KRas G12D (P01116 1-169 isoform P01116-2 G12D): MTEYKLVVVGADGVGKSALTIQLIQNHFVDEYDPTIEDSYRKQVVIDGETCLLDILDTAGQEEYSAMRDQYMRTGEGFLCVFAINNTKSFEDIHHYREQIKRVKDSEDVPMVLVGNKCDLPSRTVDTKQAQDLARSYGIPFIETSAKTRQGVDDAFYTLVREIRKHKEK

[16] = system: H358 cells; assay: Inhibition of KRas-mediated phosphorylation of ERK (Cisbio HTRF pERK), H358 cells; format: cell-based; details: Homo sapiens; for inhibition at 0.1 µM: NCI-H358, single point at 100 nM, 3 hrs compound incubation; for IC50: NCI-H358, 3 h, 3 hr compound incubation, Cisbio pERK HTRF
[17] = system: PSN1 cells; assay: Inhibition of KRas-mediated phosphorylation of ERK (Cisbio HTRF pERK), PSN1 cells; format: cell-based; details: Homo sapiens, PSN1, 3 h, 3 hour compound incubation, Cisbio pERK HTRF
Procedure, shortened: as §1

SMILES | IC50 [1] [nM] | inhibition at 0.1 µM [2] [%] | inhibition at 0.01 µM [3] [%] | IC50 [4] [nM] | inhibition at 0.1 µM [5] [%] | inhibition at 0.01 µM [6] [%] | inhibition at 0.1 µM [7] [%] | IC50 [8] [nM] | IC50 [9] [nM] | inhibition at 0.01 µM [10] [%] | inhibition at 0.01 µM [11] [%] | inhibition at 0.01 µM [12] [%] | IC50 [13] [nM] | inhibition at 0.01 µM [14] [%] | IC50 [15] [nM] | inhibition at 0.1 µM [16] [%] | IC50 [17] [nM] | IC50 [2] [nM] | IC50 [5] [nM] | IC50 [7] [nM] | also measured
CCNC(=O)c1cc2n(n1)CCCCN(c1nc(OC[C@@]34CCCN3C[C@H](F)C4)nc3c1CCN(c1cc(O)cc4ccc(F)c(CC)c14)C3)C2 [Example 301, N-ethyl-5-(7-(8-ethyl-7-fluoro-3-hydroxynaphthalen-1-yl)-2-(((2R,7aS)-2-fluorotetrahydro-1H-pyrrolizin-7a(5H)-yl)methoxy)-5,6,7,8-tetrahydropyrido[3,4-d]pyrimidin-4-yl)-4,5,6,7,8,9-hexahydropyrazolo[1,5-a][1,4]diazocine-2-carboxamide] | 6 | 85 | 91 | 12 | 34 | 89 | 54 | < 2 | 12.9 | 89 | 97 | 94 | < 2 | 99 | < 2 | 102 | 655 |  |  |  | 
CCc1c(F)ccc2cc(O)cc(N3CCc4c(nc(OC[C@@]56CCCN5C[C@H](F)C6)nc4N4CCCn5nc(C(=O)N6CC7CCC(C7)C6)cc5C4)C3)c12 [Example 302, 3-azabicyclo[3.2.1]octan-3-yl(5-(7-(8-ethyl-7-fluoro-3-hydroxynaphthalen-1-yl)-2-(((2R,7aS)-2-fluorohexahydro-1H-pyrrolizin-7a-yl)methoxy)-5,6,7,8-tetrahydropyrido[3,4-d]pyrimidin-4-yl)-5,6,7,8-tetrahydro-4H-pyrazolo[1,5-a][1,4]diazepin-2-yl)methanone] | 20 | 66 | 91 | 9 | 33 | 85 | 66 | < 2 | 26.3 | 89 | 93 | 93 | < 2 | 96 | 3 | 92 | 9490 | 27 | 167 | 49 | inhibition at 0.1 µM [1]: 70%; inhibition at 0.1 µM [4]: 91%; IC50 [16]: 6 nM
CCc1c(F)ccc2cc(O)cc(N3CCc4c(nc(OC[C@@]56CCCN5C[C@H](F)C6)nc4N4CCCn5nc(C(=O)N6C[C@@H](C)N[C@@H](C)C6)cc5C4)C3)c12 [Example 303, ((3 S,5R)-3,5-dimethylpiperazin-1-yl)(5-(7-(8-ethyl-7-fluoro-3-hydroxynaphthalen-1-yl)-2-(((2R,7aS)-2-fluorohexahydro-wH-pyrrolizin-7a-yl)methoxy)-5,6,7,8-tetrahydropyrido[3,4-d]pyrimidin-4-yl)-5,6,7,8-tetrahydro-4H-pyrazolo[1,5-a][1,4]diazepin-2-yl)methanone] | 36 | 62 | 98 | 2 | 3 | 98 | 34 | < 2 | 22.5 | 97 | 99 | 98 | < 2 | 100 | < 2 | 98 | 6700 | 35 | 164 | 73 | IC50 [16]: 8 nM
CCc1c(F)ccc2cc(O)cc(N3CCc4c(nc(OC[C@@]56CCCN5C[C@H](F)C6)nc4N4CCCn5nc(C(=O)N6CC7COCC6C7)cc5C4)C3)c12 (stereo partly drawn) [Example 306, 3-oxa-6-azabicyclo[3.2.1]octan-6-yl(5-(7-(8-ethyl-7-fluoro-3-hydroxynaphthalen-1-yl)-2-(((2R,7aS)-2-fluorohexahydro-1H-pyrrolizin-7a-yl)methoxy)-5,6,7,8-tetrahydropyrido[3,4-d]pyrimidin-4-yl)-5,6,7,8-tetrahydro-4H-pyrazolo[1,5-a][1,4]diazepin-2-yl)methanone] | 5 | 77 | 97 | 3 | 51 | 96 | 81 | < 2 | 7 | 95 | 99 | 96 | < 2 | 99 | < 2 | 100 | 2040 | 16 | 58 | 23 | inhibition at 0.1 µM [1]: 80%; inhibition at 0.1 µM [4]: 99%; IC50 [16]: 1 nM
CCc1c(F)ccc2cc(O)cc(N3CCc4c(nc(OC[C@@]56CCCN5C[C@H](F)C6)nc4N4CCCn5nc(C(=O)N6CC[C@@H]7CC[C@H]6C7)cc5C4)C3)c12 [Example 338, (1S,5S)-2-azabicyclo[3.2.1]octan-2-yl(5-(7-(8-ethyl-7-fluoro-3-hydroxynaphthalen-1-yl)-2-(((2R,7aS)-2-fluorohexahydro-1H-pyrrolizin-7a-yl)methoxy)-5,6,7,8-tetrahydropyrido[3,4-d]pyrimidin-4-yl)-5,6,7,8-tetrahydro-4H-pyrazolo[1,5-a][1,4]diazepin-2-yl)methanone] | 11 | 78 | 92 | 6 | 38 | 90 | 73 | < 2 | 9.6 | 92 | 97 | 93 | < 2 | 97 | 2 | 102 | 5430 | 21 | 226 | 67 | inhibition at 0.1 µM [1]: 76%; inhibition at 0.1 µM [4]: 95%; IC50 [16]: 7 nM
CCc1c(F)ccc2cc(O)cc(N3CCc4c(nc(OC[C@@]56CCCN5C[C@H](F)C6)nc4N4CCCn5nc(C(=O)N6CC7CCC6CC7)cc5C4)C3)c12 [Example 339, 2-azabicyclo[2.2.2]octan-2-yl(5-(7-(8-ethyl-7-fluoro-3-hydroxynaphthalen-1-yl)-2-(((2R,7aS)-2-fluorohexahydro-1H-pyrrolizin-7a-yl)methoxy)-5,6,7,8-tetrahydropyrido[3,4-d]pyrimidin-4-yl)-5,6,7,8-tetrahydro-4H-pyrazolo[1,5-a][1,4]diazepin-2-yl)methanone] | 6 | 80 | 92 | 6 | 20 | 92 | 59 | < 2 | 8.4 | 93 | 97 | 94 | < 2 | 98 | 2 | 95 | 5720 | 17 | 156 | 43 | inhibition at 0.1 µM [1]: 74%; inhibition at 0.1 µM [4]: 97%; IC50 [16]: 4 nM
